We go through eight molecules from PMC10763615, “Identification and engineering of potent cyclic peptides with selective or promiscuous binding through biochemical profiling and bioinformatic data analysis” (RSC Chemical Biology, 2023).

Assay [1] addresses T1, FGF-R3C ECD (Homo sapiens, UniProt P22607).
T1 sequence (P22607 23-375 limits assumed): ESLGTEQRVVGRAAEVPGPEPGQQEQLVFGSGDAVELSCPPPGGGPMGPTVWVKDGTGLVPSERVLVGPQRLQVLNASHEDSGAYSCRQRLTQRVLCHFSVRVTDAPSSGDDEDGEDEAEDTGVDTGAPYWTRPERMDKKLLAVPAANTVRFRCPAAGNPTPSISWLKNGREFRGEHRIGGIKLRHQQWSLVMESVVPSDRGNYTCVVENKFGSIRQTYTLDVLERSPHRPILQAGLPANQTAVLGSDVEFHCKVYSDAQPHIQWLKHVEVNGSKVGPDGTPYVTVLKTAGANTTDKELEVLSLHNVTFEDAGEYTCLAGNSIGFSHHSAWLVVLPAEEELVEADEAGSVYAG
Put plainly: biochemical. Set-up: DNA constructs for the extracellular domain (ECD) of human FGF-; HPC4 (C); made in house; host or cells: HEK 293-6E. The assay is classed as binding. In outline:
(§1)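 Biotinylated FGF-R ECD on streptavidin biosensors was dipped into ~1 μM crude peptide in PBS pH7.4 with 0.05% Tween-20 and 0.01% BSA for association, then into buffer for dissociation, and followed by BLI. Fitted KD values were adjusted for peptide concentration measured by UPLC-CAD.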

Assay [2] has as its target T2, FGF-R1C ECD (Homo sapiens, UniProt P11362).
T2 sequence (P11362 22-376 limits assumed): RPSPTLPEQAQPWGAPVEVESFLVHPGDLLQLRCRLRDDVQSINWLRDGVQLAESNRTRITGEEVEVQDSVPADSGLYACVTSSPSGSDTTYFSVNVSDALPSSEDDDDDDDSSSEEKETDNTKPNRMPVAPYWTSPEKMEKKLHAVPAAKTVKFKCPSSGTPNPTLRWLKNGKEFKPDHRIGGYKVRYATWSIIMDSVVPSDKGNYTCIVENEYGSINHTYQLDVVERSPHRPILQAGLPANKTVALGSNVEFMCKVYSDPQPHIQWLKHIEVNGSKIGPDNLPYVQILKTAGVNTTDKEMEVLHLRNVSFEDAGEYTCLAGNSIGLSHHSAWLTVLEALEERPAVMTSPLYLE
As to the kind of experiment: biochemical. The assay is classed as binding. Set-up: DNA constructs for the extracellular domain (ECD) of human FGF-; HPC4 (C); made in house; host or cells: HEK 293-6E. In outline:
as §1

In assay [3] the target is T3, FGF-R4 ECD (Homo sapiens, UniProt P22455).
T3 construct: DNA constructs for the extracellular domain (ECD) of human FGF-; HPC4 (C); made in house; host or cells: HEK 293-6E
T3 sequence (P22455 22-369 limits assumed): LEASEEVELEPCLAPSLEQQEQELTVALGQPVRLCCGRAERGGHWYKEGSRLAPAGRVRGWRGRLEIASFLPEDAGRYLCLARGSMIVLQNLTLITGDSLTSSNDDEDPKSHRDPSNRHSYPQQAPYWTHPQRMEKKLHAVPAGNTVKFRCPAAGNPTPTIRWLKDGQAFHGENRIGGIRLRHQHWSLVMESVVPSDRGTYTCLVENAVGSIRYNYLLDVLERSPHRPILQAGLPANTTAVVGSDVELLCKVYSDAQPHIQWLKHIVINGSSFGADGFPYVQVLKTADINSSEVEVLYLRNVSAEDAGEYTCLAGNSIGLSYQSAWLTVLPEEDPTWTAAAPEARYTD
As to the kind of experiment: single concentration BLI of crude peptides. The assay is classed as binding. In outline:
as §1

The target in assay [4] is T1, FGF-R3C ECD. As to the kind of experiment: biochemical. How it is done:
(§2) KD affinity binding measurements were obtained by biolayer interferometry (BLI) instruments (Fortebio Octet HTX, or Sartorius Octet RH16 using either 8 or 16 channel mode.
(§3) For single concentration binding experiments, 50 μM peptide stocks in folding buffer were diluted 1:50 in mRNA display selection buffer (PBS pH7.4 supplemented with 0.05% Tween-20 and 0.01% BSA) in either a 96 well black plate, or a 384 well tilted bottom microplate (ForteBio). Biotinylated FGF-R protein was loaded onto Streptavidin-functionalised biosensors (ForteBio) and immersed into ~1 μM peptide to obtain association kinetics curves. Dissociation kinetics curves were obtained by subsequent immersion of ligand-associated loaded sensors into a 1:50 dilution of folding buffer in mRNA display selection buffer. Fitted KD data was adjusted for concentration as determined by UPLC-CAD.
(§4) For accurate multi-concentration KD determination, dilution series of each peptide were made, and association and dissociation kinetics curves were obtained as above for each concentration to fit a multi-point KD binding model. Data collection and analysis was performed using the Octet Instrument Control […]
(§5) concentration assay kinetics curves shown in supplementary Figure S 19-24.

Assay [5] deals with T2, FGF-R1C ECD. As to the kind of experiment: biochemical. How it is done: as §2, §3, §4, §5
Assay [6] deals with T3, FGF-R4 ECD. Put plainly: multi-concentration BLI of purified peptides. The assay is classed as binding. Particulars: purified trimer-18 library peptides. How it is done: as §2, §3, §4, §5
Setting [7] is: crude NNK peptides, single concentration BLI (Table S3), read-out: KD (4).

Like-named read-outs stand apart in the source and are kept apart here. Positions of bridges follow the written chain, without caps; N, C: chain ends. Residues, ends and D or L forms follow the SMILES beside them. No end group written: not given here.

As to `CSCC[C@H](N)C(=O)N[C@H]1CSSC[C@@H](C(=O)NCC(=O)N[C@@H](CO)C(=O)NCC(=O)N[C@@H](CO)C(=O)N[C@@H](CC(=O)O)C(=O)N[C@@H](Cc2ccc(O)cc2)C(=O)N[C@@H](CCCCN)C(=O)N[C@@H](CC(=O)O)C(=O)N[C@@H](CC(=O)O)C(=O)N[C@@H](CC(=O)O)C(=O)N[C@@H](CC(=O)O)C(=O)N[C@@H](CCCCN)C(N)=O)NC(=O)[C@H](Cc2ccccc2)NC(=O)[C@H](C(C)C)NC(=O)[C@H](Cc2ccccc2)NC(=O)[C@@H]2CCCN2C(=O)[C@H](CC(C)C)NC(=O)[C@H](Cc2c[nH]c3ccccc23)NC(=O)[C@H](CO)NC(=O)[C@H](CC(=O)O)NC(=O)[C@H](Cc2ccccc2)NC(=O)[C@H](C(C)C)NC1=O` (H-MCVFDSWLPFVFCGSGSDYKDDDDK-NH2; disulfide 2-13), the Kd (commonly a measure of binding affinity in units of concentration) on FGF-R3C ECD [1] was 1060 nM; at FGF-R1C ECD [2], above 10 µM; at FGF-R4 ECD [3] (setting [7]), above 10 µM.
As to `CSCC[C@H](N)C(=O)N[C@H]1CSSC[C@@H](C(=O)NCC(=O)N[C@@H](CO)C(=O)NCC(=O)N[C@@H](CO)C(=O)N[C@@H](CC(=O)O)C(=O)N[C@@H](Cc2ccc(O)cc2)C(=O)N[C@@H](CCCCN)C(=O)N[C@@H](CC(=O)O)C(=O)N[C@@H](CC(=O)O)C(=O)N[C@@H](CC(=O)O)C(=O)N[C@@H](CC(=O)O)C(=O)N[C@@H](CCCCN)C(N)=O)NC(=O)[C@H](Cc2ccc(O)cc2)NC(=O)[C@H](C(C)C)NC(=O)[C@H](Cc2ccccc2)NC(=O)[C@@H]2CCCN2C(=O)[C@H](CC(C)C)NC(=O)[C@H](Cc2c[nH]c3ccccc23)NC(=O)[C@H](CO)NC(=O)[C@H](CC(=O)O)NC(=O)[C@H](Cc2ccccc2)NC(=O)[C@H](C(C)C)NC1=O` (H-MCVFDSWLPFVYCGSGSDYKDDDDK-NH2; disulfide 2-13), the figures for the Kd on FGF-R3C ECD [1], at FGF-R1C ECD [2] and at FGF-R4 ECD [3] (setting [7]) were 618 nM, above 10 µM and above 10 µM, respectively.
For `CSCC[C@H](NC(C)=O)C(=O)N[C@H]1CSSC[C@@H](C(=O)NCC(=O)N[C@@H](CO)C(=O)NCC(=O)N[C@@H](CO)C(=O)N[C@@H](CC(=O)O)C(=O)N[C@@H](Cc2ccc(O)cc2)C(=O)N[C@@H](CCCCN)C(=O)N[C@@H](CC(=O)O)C(=O)N[C@@H](CC(=O)O)C(=O)N[C@@H](CC(=O)O)C(=O)N[C@@H](CC(=O)O)C(=O)N[C@@H](CCCCN)C(N)=O)NC(=O)[C@H](C)NC(=O)[C@H](CCCCN)NC(=O)[C@H](CCCNC(=N)N)NC(=O)[C@H](Cc2c[nH]c3ccccc23)NC(=O)[C@H](CC(C)C)NC(=O)[C@H](CC(C)C)NC(=O)[C@H](Cc2ccc(O)cc2)NC(=O)[C@H](Cc2ccc(O)cc2)NC(=O)[C@H](Cc2ccccc2)NC(=O)[C@H](CC(C)C)NC(=O)[C@H](CC(=O)O)NC(=O)[C@H](CC(N)=O)NC1=O` [4.18], the results for the Kd at FGF-R3C ECD [4], at FGF-R1C ECD [5] and at FGF-R4 ECD [6] were above 1000 nM, above 1000 nM and 602 nM, respectively.
Take `CC[C@H](C)[C@@H]1NC(=O)[C@H](Cc2ccccc2)NC(=O)[C@H](CCCCN)NC(=O)[C@H](CC(N)=O)NC(=O)[C@H](Cc2ccc(O)cc2)NC(=O)[C@@H](NC(=O)[C@H](CCSC)NC(C)=O)CSSC[C@@H](C(=O)NCC(=O)N[C@@H](CO)C(=O)NCC(=O)N[C@@H](CO)C(=O)N[C@@H](CC(=O)O)C(=O)N[C@@H](Cc2ccc(O)cc2)C(=O)N[C@@H](CCCCN)C(=O)N[C@@H](CC(=O)O)C(=O)N[C@@H](CC(=O)O)C(=O)N[C@@H](CC(=O)O)C(=O)N[C@@H](CC(=O)O)C(=O)N[C@@H](CCCCN)C(N)=O)NC(=O)[C@H](Cc2ccc(O)cc2)NC(=O)[C@H](CC(C)C)NC(=O)[C@H](C(C)C)NC(=O)[C@H](CCCCN)NC(=O)[C@H](Cc2ccc(O)cc2)NC(=O)[C@H](CC(C)C)NC(=O)[C@H]([C@@H](C)O)NC1=O` [4.19]: the Kd on FGF-R3C ECD [4] is above 1000 nM; on FGF-R1C ECD [5] it was above 1000 nM; at FGF-R4 ECD [6], 790 nM.
Turning to `CSCC[C@H](NC(C)=O)C(=O)N[C@H]1CSSC[C@@H](C(=O)NCC(=O)N[C@@H](CO)C(=O)NCC(=O)N[C@@H](CO)C(=O)N[C@@H](CC(=O)O)C(=O)N[C@@H](Cc2ccc(O)cc2)C(=O)N[C@@H](CCCCN)C(=O)N[C@@H](CC(=O)O)C(=O)N[C@@H](CC(=O)O)C(=O)N[C@@H](CC(=O)O)C(=O)N[C@@H](CC(=O)O)C(=O)N[C@@H](CCCCN)C(N)=O)NC(=O)[C@H](Cc2c[nH]c3ccccc23)NC(=O)[C@H](CC(C)C)NC(=O)[C@H](CC(C)C)NC(=O)[C@H](Cc2ccc(O)cc2)NC(=O)[C@H](Cc2ccc(O)cc2)NC(=O)[C@H](Cc2ccccc2)NC(=O)[C@H](CC(C)C)NC(=O)[C@H](C(C)C)NC(=O)[C@H](CCCCN)NC(=O)[C@H](CCCCN)NC(=O)[C@H](CC(N)=O)NC(=O)[C@H](CCC(=O)O)NC1=O` [4.20], the results for the Kd at FGF-R3C ECD [4], at FGF-R1C ECD [5] and at FGF-R4 ECD [6] were above 1000 nM, above 1000 nM and 321 nM, respectively.
Consider `CC[C@H](C)[C@@H]1NC(=O)[C@H](Cc2c[nH]c3ccccc23)NC(=O)[C@H](Cc2ccc(O)cc2)NC(=O)[C@H](CCCCN)NC(=O)[C@H](C(C)C)NC(=O)[C@H](Cc2c[nH]c3ccccc23)NC(=O)[C@H](Cc2ccc(O)cc2)NC(=O)[C@H](CCCCN)NC(=O)[C@H](CC(=O)O)NC(=O)[C@@H](NC(=O)[C@H](CCSC)NC(C)=O)CSSC[C@@H](C(=O)NCC(=O)N[C@@H](CO)C(=O)NCC(=O)N[C@@H](CO)C(=O)N[C@@H](CC(=O)O)C(=O)N[C@@H](Cc2ccc(O)cc2)C(=O)N[C@@H](CCCCN)C(=O)N[C@@H](CC(=O)O)C(=O)N[C@@H](CC(=O)O)C(=O)N[C@@H](CC(=O)O)C(=O)N[C@@H](CC(=O)O)C(=O)N[C@@H](CCCCN)C(N)=O)NC(=O)[C@H](CCCNC(=N)N)NC(=O)[C@H](Cc2c[nH]c3ccccc23)NC(=O)[C@H](C)NC1=O` [4.21], for which the results for the Kd at FGF-R3C ECD [4], on FGF-R1C ECD [5] and at FGF-R4 ECD [6] were 509 nM, 773 nM and 411 nM, respectively.
Take `CSCC[C@H](NC(C)=O)C(=O)N[C@H]1CSSC[C@@H](C(=O)NCC(=O)N[C@@H](CO)C(=O)NCC(=O)N[C@@H](CO)C(=O)N[C@@H](CC(=O)O)C(=O)N[C@@H](Cc2ccc(O)cc2)C(=O)N[C@@H](CCCCN)C(=O)N[C@@H](CC(=O)O)C(=O)N[C@@H](CC(=O)O)C(=O)N[C@@H](CC(=O)O)C(=O)N[C@@H](CC(=O)O)C(=O)N[C@@H](CCCCN)C(N)=O)NC(=O)[C@H](CC(=O)O)NC(=O)[C@H](CCCCN)NC(=O)[C@H](C(C)C)NC(=O)[C@H](Cc2c[nH]c3ccccc23)NC(=O)[C@H](Cc2ccccc2)NC(=O)[C@H](C(C)C)NC(=O)[C@H](Cc2c[nH]cn2)NC(=O)[C@H](CC(C)C)NC(=O)[C@H](CCCCN)NC(=O)[C@H](CCCCN)NC(=O)[C@H](Cc2c[nH]c3ccccc23)NC(=O)[C@H](Cc2ccccc2)NC1=O` [4.22]: the Kd at FGF-R3C ECD [4] is 12 nM; on FGF-R1C ECD [5], 2 nM; at FGF-R4 ECD [6], below 1 nM. In addition, on FGF-R4 ECD [6], the “R4 KD (nM)” value is recorded as “sub-nanomolar”.
With “GSGSDYKDDDDK-NH2 [flag, reference compound]”, the Kd on FGF-R3C ECD [1] was above 10000 nM; at FGF-R1C ECD [2] it was above 10 µM; on FGF-R4 ECD [3] it was above 10 µM.
